Test results taken from PubChem BioAssay (NCI).
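96-well plates; 48 h exposure; 5 concentrations. Endpoints by linear interpolation between flanking doses. Not reached: highest tested concentration assigned. At the GI50, growth is halved. TGI is the concentration that stops growth completely.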

Assays:
Assay in all cases: growth of human tumour cells (NCI), 48 h
[1] = tested on: HCC-2998 colon
[2] = tested on: HS 578T breast
[3] = tested on: TK-10 renal
[4] = tested on: HCT-15 colon
[5] = tested on: MDA-MB-435
[6] = tested on: BT-549 breast
[7] = tested on: SK-MEL-28 melanoma
[8] = tested on: SF-295 CNS
[9] = tested on: M14 melanoma
[10] = tested on: SR leukemia
[11] = tested on: DU-145 prostate
[12] = tested on: LOX IMVI melanoma
[13] = tested on: MDA-MB-231 breast
[14] = tested on: CCRF-CEM leukemia
[15] = tested on: KM12 colon
[16] = tested on: OVCAR-3 ovarian
[17] = tested on: RXF 393 renal
[18] = tested on: OVCAR-5 ovarian
[19] = tested on: SNB-75 CNS
[20] = tested on: CAKI-1 renal
[21] = tested on: UACC-257 melanoma
[22] = tested on: MOLT-4 leukemia
[23] = tested on: HCT-116 colon
[24] = tested on: HL-60(TB) leukemia
[25] = tested on: MDA-MB-468 breast
[26] = tested on: NCI-H460 lung
[27] = tested on: PC-3 prostate
[28] = tested on: OVCAR-8 ovarian
[29] = tested on: SK-MEL-5 melanoma
[30] = tested on: SF-539 CNS
[31] = tested on: 786-0 renal
[32] = tested on: UO-31 renal
[33] = tested on: U251 CNS
[34] = tested on: SK-MEL-2 melanoma
[35] = tested on: T-47D breast
[36] = tested on: EKVX NSCLC
[37] = tested on: K-562 leukemia
[38] = tested on: HOP-92 NSCLC
[39] = tested on: MCF7 breast
[40] = tested on: SNB-19 CNS
[41] = tested on: IGROV1 ovarian
[42] = tested on: UACC-62 melanoma
[43] = tested on: NCI-H522 lung
[44] = tested on: NCI-H226 lung
[45] = tested on: NCI-H23 lung
[46] = tested on: A498 renal
[47] = tested on: SW-620 colon
[48] = tested on: MALME-3M melanoma
[49] = tested on: COLO 205 colon
[50] = tested on: SN12C renal
[51] = tested on: SF-268 CNS
[52] = tested on: A549 NSCLC
[53] = tested on: SK-OV-3 ovarian
[54] = tested on: HOP-62 NSCLC
[55] = tested on: ACHN renal
[56] = tested on: RPMI-8226 leukemia
[57] = tested on: OVCAR-4 ovarian
[58] = tested on: HT29 colon

Compound `CN1CCN(Cc2ccc(C(=O)Nc3cccc(Nc4ccc5cc(O)ccc5n4)c3)cc2C(F)(F)F)CC1` has a GI50 [1] of 2.39 µM, a TGI [1] of 5.22 µM and a GI50 [2] of 4.17 µM. For the same compound, the TGI [2] was 35.3 µM, the GI50 [3] was 21.4 µM and the TGI [3] was 35.8 µM. For the same compound, the GI50 [4] was 2.09 µM, the TGI [4] was 4.49 µM and the GI50 [5] was 8.53 µM. The TGI [5] was 20.8 µM, the GI50 [6] was 12.2 µM and the TGI [6] was 25.4 µM. It also gave a GI50 [7] of 1.79 µM, a TGI [7] of 3.32 µM and a GI50 [8] of 2.33 µM. For the same compound, the TGI [8] was 5.64 µM, the GI50 [9] was 9.06 µM and the TGI [9] was 23.5 µM. For the same compound, the GI50 [10] was 2.68 µM, the TGI [10] was 8.5 µM and the GI50 [11] was 10.5 µM. It also gave a TGI [11] of 22.3 µM, a GI50 [12] of 1.73 µM and a TGI [12] of 3.19 µM. The GI50 [13] was 2.54 µM, the TGI [13] was 7.9 µM and the GI50 [14] was 3.48 µM. The TGI [14] was 17.2 µM, the GI50 [15] was 3.17 µM and the TGI [15] was 10.9 µM. It also gave a GI50 [16] of 11.2 µM, a TGI [16] of 23.4 µM and a GI50 [17] of 3.55 µM. For the same compound, the TGI [17] was 15.7 µM, the GI50 [18] was 14.2 µM and the TGI [18] was 27.7 µM. It also gave a GI50 [19] of 0.656 µM, a TGI [19] of 15.3 µM and a GI50 [20] of 11.9 µM. It also gave a TGI [20] of 24.3 µM, a GI50 [21] of 7.35 µM and a TGI [21] of 20.6 µM. The GI50 [22] was 3.52 µM, the TGI [22] was 9.49 µM and the GI50 [23] was 3.93 µM. The TGI [23] was 15 µM, the GI50 [24] was 2.58 µM and the TGI [24] was 4.86 µM. The GI50 [25] was 2.23 µM, the TGI [25] was 6.47 µM and the GI50 [26] was 3.84 µM. It also gave a TGI [26] of 15.2 µM, a GI50 [27] of 4.68 µM and a TGI [27] of 20.1 µM. The GI50 [28] was 13.2 µM, the TGI [28] was 28.4 µM and the GI50 [29] was 2.35 µM. It also gave a TGI [29] of 6.4 µM, a GI50 [30] of 1.98 µM and a TGI [30] of 12.2 µM. For the same compound, the GI50 [31] was 3.13 µM, the TGI [31] was 10.9 µM and the GI50 [32] was 13.4 µM. The TGI [32] was 27.3 µM, the GI50 [33] was 2.17 µM and the TGI [33] was 6.49 µM. It also gave a GI50 [34] of 13.5 µM, a TGI [34] of 26.4 µM and a GI50 [35] of 14.6 µM. For the same compound, the TGI [35] was 32.2 µM, the GI50 [36] was 14.2 µM and the TGI [36] was 28.3 µM. It also gave a GI50 [37] of 1.88 µM, a TGI [37] of 4.51 µM and a GI50 [38] of 3.39 µM. The TGI [38] was 17 µM, the GI50 [39] was 2.46 µM and the TGI [39] was 7.31 µM. The GI50 [40] was 13.7 µM, the TGI [40] was 27.5 µM and the GI50 [41] was 16.6 µM. The TGI [41] was 31.3 µM, the GI50 [42] was 15.4 µM and the TGI [42] was 29.2 µM. For the same compound, the GI50 [43] was 4.82 µM, the TGI [43] was 17.5 µM and the GI50 [44] was 16 µM. It also gave a TGI [44] of 33.3 µM, a GI50 [45] of 13.9 µM and a TGI [45] of 28.5 µM. It also gave a GI50 [46] of 22.5 µM, a TGI [46] of 37.1 µM and a GI50 [47] of 2.3 µM. For the same compound, the TGI [47] was 4.57 µM, the GI50 [48] was 1.59 µM and the TGI [48] was 3.15 µM. It also gave a GI50 [49] of 10.2 µM, a TGI [49] of 23.8 µM and a GI50 [50] of 14.1 µM. It also gave a TGI [50] of 27.6 µM, a GI50 [51] of 10.4 µM and a TGI [51] of 23.8 µM. The GI50 [52] was 8.7 µM, the TGI [52] was 22.3 µM and the GI50 [53] was 16.5 µM. The TGI [53] was 30.5 µM, the GI50 [54] was 12.1 µM and the TGI [54] was 24.9 µM. For the same compound, the GI50 [55] was 7.59 µM, the TGI [55] was 23.1 µM and the GI50 [56] was 2.65 µM. It also gave a TGI [56] of 7.1 µM, a GI50 [57] of 11.2 µM and a TGI [57] of 23.8 µM. It also gave a GI50 [58] of 3.37 µM and a TGI [58] of 12 µM.
